Test results: patent US8648180B2, “Compound Smilaxchinoside F” (Guilin Sanjin Pharmaceuticals Co., Ltd., priority 2010, dated 2014)
Several values for one entry are separate records, joined by “and”; a condition that tells them apart may be missing. Equal entries are not always repeated.

Tested on: Human lung cancer cells Spc-A1
Assay: MTT method, anti-proliferation on lung cancer cell line SPC-A1
Format: cell-based
Details: for Inhibition rate (%) / OD value: 5Fu 10^−4 mol/L; for OD value: A at 490 nm, x ± s, n = 5
Protocol: Human lung cancer cells Spc-A1 (hereinafter referred to as SPC), is purchased from Wuhan Cell Collection Center (cell bank of China Center for Type CultureCollection).
The tumor cells are placed in the RPMI-1640 complete medium including 10% fetal calf serum and are cultured at 37° C. under 5% CO2 incubator. When the cell growth reaches the logarithmic phase (approximately 80% integration), cells are subcultured. The experiments are divided into negative control group (RPMI-1640), positive drug group (5Fu, 10^−4 mol·L^−1) and reagent group of Smilaxchinoside F at different concentrations, which are prepared by Guilin Sanjin Pharmaceutical Co., Ltd, in accordance with example 1 of the present invention.
5×10^7·L^−1 cells at logarithmic phase are seeded in 96-well plates, each well 180 μL. After culturing for 24 h, medicine is added, each well 20 μL, five parallel wells for each group. On 4 hours before the end of culture, 20 μL of 5 g·L^−1 MTT solution is added to the each well. After the end of the culture (48 h and 72 h), the supernatant is discarded. 150 μL of DMSO is added to each wells; the optical density (A value) of each well is detected by a microplate reader at 490 nm; the tumor suppression percentage is calculated.

**Q.** With `O=c1[nH]cc(F)c(=O)[nH]1` [5Fu] as the compound, how does the “Effect on SPA (lung cancer) cell proliferation in vitro, in words” value read?
**A.** significant anti-tumor effect

**Q.** What about the “Inhibition rate (%)” value (48 h) of the same compound?
**A.** 39.4% and 39.37%

**Q.** And the OD value (48 h)?
**A.** 0.372 ± 0.031

**Q.** What about the “Inhibition rate (%)” value (72 h) of the same compound?
**A.** 59.6% and 59.61%

**Q.** And the OD value (72 h)?
**A.** 0.295 ± 0.026
